Measured values taken from paper PMC4372144 (Nature communications, 2015).

System: Type II collagenase
Test: Peptide cleavage kinetics, modified fluorescamine assay, Type II collagenase
Format: biochemical
Details: 1 U ml^−1 Type II collagenase, pH 7.4, 37°C, duration of the assay 9 hours, fluorescamine read-out

Substance: GCEE-NGGSGGSN-GGGH-Methacrylate [Non-degradable peptide]
- protease-mediated cleavage of peptide: not detectable
